# Test results from patent publication US12331324B2, “Versatile peroxidases and uses thereof” (Yeda Research and Development Co. Ltd., priority 2021, dated 2025).
# Where two headings read alike, the source gives them in different places.
# What was measured:
# [1] = molecular target: Pleurotus eryngii versatile peroxidase VPL, variant R4 (VPL-R4, previously evolved for expression; wild type SEQ ID NO: 8) (Pleurotus eryngii, UniProt O94753); type: biochemical; conditions: 25° C.
# Method: (§1) VPs production and purification. A colony from S. cerevisiae clone containing the VP gene (5H, 8H, 11H, VPL_R4, VPL_2-1B) was picked from an SC drop-out plate, inoculated in 25 mL minimal medium in a 250 flask, and incubated for 48 hours at 30° C. and 225 rpm. An aliquot of cells was removed and used to inoculate 100 mL of minimal medium in a 1 L flask to an OD600 nm of 0.25-0.30, under the same conditions. The cells completed two growth phases (8-10 hours, reaching OD600 nm˜1-1.5), then the expression medium (450 mL) was inoculated with 50 mL of the pre-culture in a 2 L flask (OD600 nm˜0.1). Cells were incubated for a further ˜60 hours at 30° C. and 225 rpm. Thereafter, cells were centrifuged at 6000 g for 15 min at 4° C., and the supernatant was collected and filtered with a 0.2 μm filter bottle.
# (§2) Filtrates were subjected to fractional precipitation with ammonium sulfate in two steps: first cut of 50%, followed by centrifugation and elimination of the precipitates, and the second cut of 70%. Buffer A was used to dissolve the pellet, and the dissolved protein solution was shaken overnight at 4° C. for maximal recovery. The dissolved fraction was then centrifuged, filtrated, concentrated, and subjected to overnight dialysis against buffer A. Filtered fractions of the VP proteins after dialysis were uploaded into a HiTrap™ Q HP Column (GE Healthcare Bio-Sciences AB, Uppsala, Sweden) pre-equilibrated with buffer A, through ÄKTA pure protein purification system (GE Healthcare Bio-Sciences AB). Proteins were eluted in a two-step linear gradient from 0 to 1 M NaCl, at a flow rate of 1 ml/min: the first phase of 0-25% over 15 column volumes (75 min) and second phase of 25-100% over 2 column volumes (10 min). The fractions of the peak with the highest VP activity (and absorption at 407 nm) were pooled, concentrated, and dialyzed against 20 mM piperazine buffer pH=5.5 and 150 mM NaCl (buffer B). Protein fractions were then uploaded onto a Superdex 75 Increase 10/300 GL (GE Healthcare Bio-Sciences AB) through the ÄKTA pure system pre-equilibrated with buffer B. The fractions of the peak with the highest VP activity (and absorption at 407 nm) were pooled and dialyzed against buffer A. Pure protein samples were stored at 4° C. Protein concentration was determined using the BCA assay with bovine serum albumin as a standard.
# (§3) pH activity profiles. For purified 5H, 8H, 11H, and R4, 20 μL protein samples (diluted in buffer A) were transferred into activity 96 plates (in the case of VA and MnSO4, UV-Star plates; Greiner Bio-One GmbH, Kremsmünster, Austria) and then, 180 μL of the reaction mixture were added to each row in the plate, and absorption at the appropriate wavelength (substrate-dependent) was recorded immediately in a kinetic mode in a plate-reader at 25° C. The reaction mixtures contained a specific substrate in 100 mM citrate-phosphate-borate buffer (pH 2, 3, 3.5, 4, 5, 6, 7, 8) and 0.1 mM H2O2. The activities were recorded in triplicate. The following substrate concentrations and absorption wavelengths were used: ABTS: 2 mM, 418 nm; DMP: 5 mM, 469 nm; RB5: 0.05 mM, 598 nm; VA: 30 mM, 310 nm. For manganese, the reaction mixtures contained 60 mM MnSO4 in 100 mM sodium tartrate buffer (pH 3, 3.5, 4, 4.5, 5) and 0.1 mM H2O2, and the Mn^3+-tartrate complex absorption was read at 238 nm. For each protein and substrate, the activities were normalized to the activity at optimal pH for residual activity calculations. Each activity assay was conducted in triplicate.
# (§4) Kinetic parameters. Steady-state kinetics were determined for 5H, 8H, 11H and R4, by measuring the activity (initial rates) in increasing concentrations of the substrate, and the KM and Kcat values were calculated by fitting the results to the Michaelis-Menten model (V0=KcatES/(KM+S)).
# [2] = test system: Ganoderma sp. 10597_SS1 versatile peroxidase VP8, designed variant 8H, SEQ ID NO: 2 (wild type SEQ ID NO: 5; mutations R4P, M5S, E34T, G59A, T65W, A67Q, V85I …); type: biochemical; conditions: for Kcat / Kcat/KM / Km: 25° C.
# Method: as §1, §2, §3, §4
# [3] = test system: Pleurotus eryngii versatile peroxidase VPL, variant R4 (VPL-R4, previously evolved for expression; wild type SEQ ID NO: 8); type: biochemical
# Method: as §1, §2, §3, §4
# [4] = test system: Pleurotus ostreatus versatile peroxidase VP5, designed variant 5H, SEQ ID NO: 1 (wild type SEQ ID NO: 4; mutations A11S, V15T, A17S, A19E, P26D, D38G, A40Q …)
# Method: as §1
# Filtrates were subjected to fractional precipitation with ammonium sulfate in two steps: first cut of 50%, followed by centrifugation and elimination of the precipitates, and the second cut of 70%. […] Protein concentration was determined using the BCA assay with bovine serum albumin as a standard.
# pH activity profiles. […] The activities were recorded in triplicate. […] For manganese, the reaction mixtures contained 60 mM MnSO4 in 100 mM sodium tartrate buffer (pH 3, 3.5, 4, 4.5, 5) and 0.1 mM H2O2, and the Mn^3+-tartrate complex absorption was read at 238 nm. […]
# [5] = high efficiency site, optimum pH, 1 mM H2O2
# [6] = low efficiency site, optimum pH, 1 mM H2O2
# [7] = high efficiency site, optimum pH, 0.2 mM H2O2
# [8] = low efficiency site, optimum pH, 0.2 mM H2O2
# [9] = H2O2 kinetics with 2 mM ABTS, optimum pH for ABTS
# [10] = H2O2 kinetics with 3 mM ABTS, optimum pH for ABTS
# [11] = VA, RB5, optimum pH, 0.2 mM H2O2
# Pleurotus eryngii versatile peroxidase VPL, variant R4 (VPL-R4, previously evolved for expression; wild type SEQ ID NO: 8) (Pleurotus eryngii, UniProt O94753), sequence (O94753 31-361, change not shown): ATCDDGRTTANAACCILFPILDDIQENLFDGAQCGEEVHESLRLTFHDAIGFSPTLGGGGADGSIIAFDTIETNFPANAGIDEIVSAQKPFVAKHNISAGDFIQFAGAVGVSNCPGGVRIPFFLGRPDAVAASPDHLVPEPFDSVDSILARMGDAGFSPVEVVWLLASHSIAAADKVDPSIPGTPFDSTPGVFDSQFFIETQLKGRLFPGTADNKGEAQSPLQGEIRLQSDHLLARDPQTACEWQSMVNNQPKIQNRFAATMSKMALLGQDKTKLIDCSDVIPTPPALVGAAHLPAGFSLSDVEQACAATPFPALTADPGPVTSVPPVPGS
Compound,"Kcat [1, 5] [s⁻¹]","Kcat/KM [1, 5]","Km [1, 5] [µM]","Kcat [1, 6] [s⁻¹]","Kcat/KM [1, 6] [s⁻¹ mM⁻¹]","Km [1, 6] [µM]","Kcat [2, 7] [s⁻¹]","Kcat/KM [2, 7] [M⁻¹ s⁻¹]","Km [2, 7] [µM]","Kcat [2, 8] [s⁻¹]","Kcat/KM [2, 8] [M⁻¹ s⁻¹]","Km [2, 8] [µM]","Kcat ([1]; VA, RB5, optimum pH, 1 mM H2O2) [s⁻¹]","Kcat/KM ([1]; VA, RB5, optimum pH, 1 mM H2O2) [s⁻¹ mM⁻¹]","Km ([1]; VA, RB5, optimum pH, 1 mM H2O2) [µM]","Kcat [2, 11] [s⁻¹]","Kcat/KM [2, 11] [M⁻¹ s⁻¹]","Km [2, 11] [µM]",further results
"CCn1c(=NN=c2sc3cc(S(=O)(=O)O)ccc3n2CC)sc2cc(S(=O)(=O)O)ccc21 [ABTS, 2,2′-azino-bis (3-ethylbenzothiazoline-6-sulfonic acid)]",1.3 ± 0.1,"3,300 ± 700 sec^−1 mM^−1",0.39 ± 0.08,400 ± 21,405 ± 49,987 ± 107,7.8 ± 0.3,1.55e+06 ± 260000,5 ± 0.8,28.2 ± 0.9,35400 ± 4400,795 ± 96,–,–,–,–,–,–,–
"COc1cccc(OC)c1O [DMP, 2,6-dimethoxyphenol]",0.74 ± 0.05,542 ± 113 s⁻¹ mM⁻¹,1.4 ± 0.3,132 ± 7,8.2 ± 1.0,16100,2.2 ± 0.1,94600 ± 8200,22.9 ± 1.8,3.6 ± 0.1,22100 ± 1600,164 ± 12,–,–,–,–,–,–,"heme-dependent affinity for DMP, fold higher relative to the other VPs ([2]; 8H relative to the other VPs (5H, 11H, R4)): at least 70 fold"
"OO [H2O2, Hydrogen peroxide]",–,–,–,–,–,–,–,–,–,–,–,–,–,–,–,–,–,–,"H2O2 affinity, fold lower than seen in 11H [3]: 12 fold; Kcat [1, 9]: 230 ± 9 s⁻¹; Kcat/KM [1, 9]: 503 ± 61 s⁻¹ mM⁻¹; Km [1, 9]: 457 ± 53 µM; H2O2 affinity, fold lower than seen in 11H ([2]; 8H relative to 11H): 2 fold; Kcat [2, 10]: 12.1 ± 0.6 s⁻¹; Kcat/KM [2, 10]: 135000 ± 21000 M⁻¹ s⁻¹; Km [2, 10]: 89.7 ± 12.9 µM; H2O2 affinity, fold lower than seen in 11H ([4]; 5H relative to 11H): 5 fold"
"Nc1c(N=Nc2ccc(S(=O)(=O)CCOS(=O)(=O)O)cc2)c(S(=O)(=O)O)cc2cc(S(=O)(=O)O)c(N=Nc3ccc(S(=O)(=O)CCOS(=O)(=O)O)cc3)c(O)c12 [RB5, reactive black 5]",–,–,–,–,–,–,–,–,–,–,–,–,0.63 ± 0.02,487 ± 51,1.3 ± 0.1,1.1 ± 0.1,65000 ± 7200,17.3 ± 1.7,–
"COc1ccc(CO)cc1OC [VA, veratryl alcohol]",–,–,–,–,–,–,–,–,–,–,–,–,5.4 ± 0.4,0.7 ± 0.1,7400,5.5 ± 0.1,550 ± 20,10100,affinity for VA relative to the next best enzyme ([4]; 5H relative to the next best enzyme): more than an order of magnitude higher affinity
